Read-outs that look alike come from different tables or passages of the source. Where a SMILES comes first, the peptide text is derived from it. Where no end group is shown, it is not given here. [ ]: non-standard residue; d: D form. The star is where a group is joined. Biotin = O=C1N[C@H]2[C@H](CS[C@H]2CCCCC(=O)*)N1; pY = N[C@@H](Cc1ccc(OP(=O)(O)O)cc1)C(=O)O
Columns and labels:
[1] = target: T1, GADS SH2 (Homo sapiens, UniProt O75791); assay: SPR equilibrium binding of recombinant GADS SH2 domain to immobilized phosphopeptides; settings: 37°C
T1 construct: Recombinant His-tagged SH2 domains of GADS, GRB2, and TSAd in the popinF vector; His tag; made in house; host or cells: Escherichia coli Rosetta(DE3)/pLysS
T1 sequence (O75791 58-149 limits assumed): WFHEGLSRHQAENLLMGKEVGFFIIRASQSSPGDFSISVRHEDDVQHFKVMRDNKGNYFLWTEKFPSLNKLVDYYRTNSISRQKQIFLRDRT
From the text: (§1) We measured the direct binding of purified monomeric SH2 domains to the phosphorylated CD6 Y629 peptide at physiological temperature using surface plasmon resonance (SPR) (Fig. 1). The sensorgram traces for all three proteins binding to phosphorylated CD6 Y629 are consistent with monomeric binding of all three proteins (Fig. 1, right). Equilibrium binding data were plotted to determine dissociation constants (KDs) (Fig. 1, left). GADS and GRB2 bound with similar KDs to phosphorylated Y629, at 1 to 3 μM and 2 to 4 μM, respectively (Fig. 1A and B and Table 2). As an indication that the recombinant proteins were active, the SH2 domains of GADS and GRB2 bound to a phosphorylated CD28-derived peptide containing the YXN motif with an affinity (KD = 2 to 3 μM) similar to that determined by previous measurements (Fig. 1 and Table 2) ([14]).
(§2) Recombinant His-tagged SH2 domains of GADS, GRB2, and TSAd in the popinF vector (provided by Louis Bird, Oxford Protein Production Facility, Harwell, Oxfordshire, UK) and SLP-76 ([1]) were expressed in Escherichia coli Rosetta(DE3)/pLysS competent cells (Novagen) and purified by nickel affinity chromatography and size exclusion chromatography. Peptides for CD6 pY662 (biotin-[…]pYDDISAA), CD6 Y629 (biotin-[…]), CD6 pY629 (biotin-SSGEWpYQNFQP), and CD28 pYMNM (biotin-LLHSDpYMNMTP) were immobilized at ∼25 response units on streptavidin-coated CM5 chips in a BIAcore 3000 machine (Peptide Protein Research Ltd., Hampshire, UK) ([1], [14]). Long CD6 peptides (biotin-[…]pYDDISAA) phosphorylated at Y629 (pY629), Y662 (pY662), or both (pY629 pY662) were immobilized at ∼50 response units. Serially diluted proteins were injected over the chip at 10 μl/min at 37°C. Background signals of proteins over a streptavidin-coated flow cell were subtracted, equilibrium binding data were plotted, and KDs for 1:1 Langmuir binding were determined.

[2] = target: T2, SLP-76 SH2 (Homo sapiens, UniProt Q13094); assay: SPR equilibrium binding of recombinant SLP-76 SH2 domain to immobilized long CD6 peptides; settings: 37°C; for Kd: equilibrium binding of soluble recombinant SH2 domain to immobilized long CD6 peptides (~50 RU), range, n = 3
T2 construct: 2-fold serial dilutions of GADS (10 μM) (A) and SLP-76 (20 μM) (B) SH2 domains over the long CD6 peptides; His tag; made in house; host or cells: Escherichia coli Rosetta(DE3)/pLysS
T2 sequence (Q13094 422-530 limits assumed): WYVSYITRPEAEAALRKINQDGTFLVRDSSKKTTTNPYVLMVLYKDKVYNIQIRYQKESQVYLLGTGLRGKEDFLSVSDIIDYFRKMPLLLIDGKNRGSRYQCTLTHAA
From the text: SPR analysis with long peptides containing both Y629 and Y662 phosphorylated at either or both tyrosine residues confirmed the specificity of the SH2 domains of GADS and SLP-76 for the CD6 Y629 and Y662 motifs, respectively (Fig. 3 and Table 3). […] Coprecipitation of GADS with CD6 was not observed in Jurkat (J14) cells, which lack SLP-76 (data not shown). GADS and SLP-76 interact with each other independently of their SH2 domains. A GADS SH3 domain binds to a proline-rich region of SLP-76 ([15]). This configuration means that both SH2 domains are available for bivalent binding to two phosphorylated tyrosine residues in close proximity. CD6 Y629 is the closest tyrosine residue to CD6 Y662 in the linear amino acid sequence of the cytoplasmic region.
as §2

[3] = target: T3, GRB2 SH2 (Homo sapiens, UniProt P62993); assay: SPR equilibrium binding of recombinant GRB2 SH2 domain to immobilized phosphopeptides; settings: 37°C
T3 construct: Recombinant His-tagged SH2 domains of GADS, GRB2, and TSAd in the popinF vector; His tag; made in house; host or cells: Escherichia coli Rosetta(DE3)/pLysS
T3 sequence (P62993 60-152 limits assumed): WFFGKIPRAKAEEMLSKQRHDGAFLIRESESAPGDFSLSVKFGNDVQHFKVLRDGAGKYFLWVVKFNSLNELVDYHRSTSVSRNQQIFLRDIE
From the text: as §1, §2

[4] = target: T4, TSAd SH2 (Homo sapiens, UniProt Q9NP31); assay: SPR equilibrium binding of recombinant TSAd SH2 domain to immobilized phosphopeptides; settings: equilibrium binding of soluble recombinant SH2 domain to immobilized biotinylated peptide, 37°C, 1:1 Langmuir, range, n = 3 (CD28 pYMN: n = 1)
T4 construct: Recombinant His-tagged SH2 domains of GADS, GRB2, and TSAd in the popinF vector; His tag; made in house; host or cells: Escherichia coli Rosetta(DE3)/pLysS
T4 sequence (Q9NP31 95-186 limits assumed): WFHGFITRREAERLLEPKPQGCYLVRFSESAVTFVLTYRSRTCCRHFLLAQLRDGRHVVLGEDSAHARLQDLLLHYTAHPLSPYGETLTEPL
From the text: as §1
Recombinant His-tagged SH2 domains of GADS, GRB2, and TSAd in the popinF vector (provided by Louis Bird, Oxford Protein Production Facility, Harwell, Oxfordshire, UK) and SLP-76 ([1]) were expressed in Escherichia coli Rosetta(DE3)/pLysS competent cells (Novagen) and purified by nickel affinity chromatography and size exclusion chromatography. […] Background signals of proteins over a streptavidin-coated flow cell were subtracted, equilibrium binding data were plotted, and KDs for 1:1 Langmuir binding were determined.

[5] = equilibrium binding of soluble recombinant SH2 domain to immobilized long CD6 peptides (~50 RU), range, n = 3, read-out: KD (μM) (range) GADS SH2
[6] = equilibrium binding of soluble recombinant SH2 domain to immobilized biotinylated peptide (~25 RU on streptavidin-coated CM5 chip), 1:1 Langmuir, range, n = 3, read-out: KD (μM) GRB2 SH2
[7] = equilibrium binding of soluble recombinant SH2 domain to immobilized biotinylated peptide (~25 RU on streptavidin-coated CM5 chip), 1:1 Langmuir, range, n = 3, read-out: KD (μM) GADS SH2
[8] = fitted equilibrium curve of the experiment shown, 2-fold serial dilutions of GADS SH2 from 35 μM over immobilized peptide, streptavidin background subtracted, read-out: KD, GADS SH2 (Fig. 1A)

Row | Kd [1, 5] | Kd [2] | Kd [3, 6] | Kd [1, 7] | Kd [1, 8] | Molecule | other results
1 | 0.2 to 0.6 µM |  |  |  |  | Biotin-STSSGEW[pY]QNFQPPPQPPSEEQFGCPGSPSPQPDSTDNDDYDDISAA [pY629] | binding of the SLP-76 SH2 domain ([2]; long CD6 peptides, data not shown): no binding
2 | 0.1 to 2 µM | 0.3 to 2 µM |  |  |  | Biotin-STSSGEW[pY]QNFQPPPQPPSEEQFGCPGSPSPQPDSTDNDD[pY]DDISAA [pY629 pY662] | 
3 |  | 0.3 to 2 µM |  |  |  | Biotin-STSSGEWYQNFQPPPQPPSEEQFGCPGSPSPQPDSTDNDD[pY]DDISAA [pY662] | 
4 |  |  | 2 to 4 µM | 1 to 3 µM | 1 µM | NC(=O)CC[C@H](NC(=O)[C@H](Cc1ccc(OP(=O)(O)O)cc1)NC(=O)[C@H](Cc1c[nH]c2ccccc12)NC(=O)[C@H](CCC(=O)O)NC(=O)CNC(=O)[C@H](CO)NC(=O)[C@H](CO)NC(=O)CCCC[C@@H]1SC[C@@H]2NC(=O)N[C@@H]21)C(=O)N[C@@H](CC(N)=O)C(=O)N[C@@H](Cc1ccccc1)C(=O)N[C@@H](CCC(N)=O)C(=O)N1CCC[C@H]1C(=O)O [CD6 pY629] (Biotin-SSGEW[pY]QNFQP-OH) | Kd ([3]; fitted equilibrium curve of the experiment shown, 2-fold serial dilutions of GRB2 SH2 from 106 μM over immobilized peptide, streptavidin background subtracted, read-out: KD, GRB2 SH2 (Fig. 1B)): 2 µM; Kd [4]: 26 to 58 µM
5 |  |  | 2 to 3 µM | 2 to 3 µM | 2 µM | CSCC[C@H](NC(=O)[C@H](Cc1ccc(OP(=O)(O)O)cc1)NC(=O)[C@H](CC(=O)O)NC(=O)[C@H](CO)NC(=O)[C@H](Cc1c[nH]cn1)NC(=O)[C@H](CC(C)C)NC(=O)[C@H](CC(C)C)NC(=O)CCCC[C@@H]1SC[C@@H]2NC(=O)N[C@@H]21)C(=O)N[C@@H](CC(N)=O)C(=O)N[C@@H](CCSC)C(=O)N[C@H](C(=O)N1CCC[C@H]1C(=O)O)[C@@H](C)O [CD28 pYMN, reference compound] (Biotin-LLHSD[pY]MNMTP-OH) | 

— PMC5440646, “T Cell Costimulation by CD6 Is Dependent on Bivalent Binding of a GADS/SLP-76 Complex” (Molecular and Cellular Biology, 2017)
